Values joined by “and” are separate entries in the source; they are usually repeats but may differ in a detail not shown here. Equal entries are not always repeated.
Legend:
[1] = target: T1, human ETB receptor (Homo sapiens, UniProt P24530); experiment: Endothelin binding inhibition, Binding Test #2: competition with 125I-ET-1 for ETB receptors on transfected COS7 cell membranes
T1 construct: expressed in transfected cells; host or cells: COS7 cells
T1 sequence (P24530 27-442): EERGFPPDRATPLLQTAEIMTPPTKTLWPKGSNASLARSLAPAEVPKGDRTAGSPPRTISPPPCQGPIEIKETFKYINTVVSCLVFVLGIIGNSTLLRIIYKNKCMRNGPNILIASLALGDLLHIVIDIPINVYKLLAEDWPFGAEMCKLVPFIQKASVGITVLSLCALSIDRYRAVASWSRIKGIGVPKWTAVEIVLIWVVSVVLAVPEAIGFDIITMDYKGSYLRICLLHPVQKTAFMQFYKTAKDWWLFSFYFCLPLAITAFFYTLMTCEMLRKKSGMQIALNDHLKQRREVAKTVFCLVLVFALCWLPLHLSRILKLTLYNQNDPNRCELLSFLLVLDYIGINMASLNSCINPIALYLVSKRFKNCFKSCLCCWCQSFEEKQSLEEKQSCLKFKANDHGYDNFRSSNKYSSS
Excerpt: Compounds that are potential endothelin antagonists are identified by testing their ability to compete with ^125I-labeled ET-1 for binding to human ETA receptors or ETB receptors present on isolated cell membranes. The effectiveness of the test compound as an antagonist or agonist of the biological tissue response of endothelin can also be assessed by measuring the effect on endothelin induced contraction of isolated rat thoracic aortic rings. The ability of the compounds to act as antagonists or agonists for ETB receptors can be assess by testing the ability of the compounds are to inhibit endothelin-1 induced prostacyclin release from cultured bovine aortic endothelial cells.
COS7 cells were transfected with DNA encoding the ETB receptor, The resulting cells, which express the human ETB receptor, were grown to confluence in T-150 flasks. Membrane was prepared as described above. The binding assay was performed as described above using the membrane preparation diluted with binding buffer to a concentration of 1 μg/50 μL.
(§1) Briefly, the COS7 cells, described above, that had been transfected with DNA encoding the ETB receptor and express the human ETB receptor on their surfaces were grown to confluence in T-175 flasks. Cells from multiple flasks were collected by scraping, pooled and centrifuged for 10 min at 190×g. The cells were resuspended in phosphate buffered saline (PBS) containing 10 mM EDTA using a Tenbroeck homogenizer. The suspension was centrifuged at 4° C. 57,800×g for 15 min, the pellet was resuspended in 5 mL of buffer A (5 mM HEPES buffer, pH 7.4 containing aprotinin (100 KIU/mL)) and then frozen and thawed once. Five mL of Buffer B (5 mM HEPES Buffer, pH 7.4 containing 10 mM MnCl2 and 0.001% deoxyribonuclease Type 1) was added, the suspension mixed by inversion and then incubated at 37° C. for 30 minutes. The mixture was centrifuged at 57,800×g as described above, the pellet washed twice with buffer A and then resuspended in buffer C (30 mM HEPES buffer, pH 7.4 containing aprotinin (100 KIU/mL) to give a final protein concentration of 2 mg/mL.
The binding assay was performed as described above using the membrane preparation diluted to give 1 μg/50 μL of binding buffer.

[2] = target: T2, human ETA receptors (Homo sapiens, UniProt P25101); experiment: Endothelin binding inhibition, Binding Test #1: competition with 125I-ET-1 for ETA receptors on TE 671 cell membranes
T2 construct: endogenous in cells; host or cells: TE 671 cells (ATCC HTB 139), membrane preparation
T2 sequence (P25101 21-427): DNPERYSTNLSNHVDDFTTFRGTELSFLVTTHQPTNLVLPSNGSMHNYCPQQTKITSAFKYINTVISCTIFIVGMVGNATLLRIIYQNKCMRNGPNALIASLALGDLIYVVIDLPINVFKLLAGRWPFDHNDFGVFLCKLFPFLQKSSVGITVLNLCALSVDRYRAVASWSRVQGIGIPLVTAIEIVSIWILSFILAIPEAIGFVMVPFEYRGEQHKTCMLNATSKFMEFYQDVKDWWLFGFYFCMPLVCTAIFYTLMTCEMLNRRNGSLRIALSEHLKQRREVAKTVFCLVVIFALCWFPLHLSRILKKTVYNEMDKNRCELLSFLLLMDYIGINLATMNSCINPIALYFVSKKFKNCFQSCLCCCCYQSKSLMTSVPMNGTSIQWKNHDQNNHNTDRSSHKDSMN
Protocol: as §1, with “Cells from” for “Briefly, the COS7 cells, described above, that had been transfected with DNA encoding the ETB receptor and express the human ETB receptor on their surfaces were grown to confluence in T-175 flasks. Cells from”, “4° C. at 57,800×g for” for “4° C. 57,800×g for”, “thawed once. 5 mL of” for “thawed once. Five mL of”, “of 2 mg/mL and stored at −70° C. until use.” for “of 2 mg/mL.”
The membrane suspension (50 μL), containing up to 8 μg of membrane protein, was added to each of (A), (B), or (C). […] Alternatively, the incubation was conducted at 24° C.
The supernatant, containing unbound radioactivity, was decanted and the pellet counted on a Genesys multiwell gamma counter. The degree of inhibition of binding (D) was calculated according to the following equation: [formula]
Each test was generally performed in triplicate.

[3] = incubation at 24° C. (values marked †)
[4] = incubation at 4° C. (values without †)

Molecule | IC50 [1, 3] [nM] | IC50 [2, 3] | IC50 [1, 4] [nM] | IC50 [2, 4] [nM] | inhibition at 100 µM ([1]; read-out: ETB % inhibition @ 100 μM, @ 100 μM, incubation at 24° C.) [%]
Cc1ccc(CC(=O)c2sccc2S(=O)(=O)Nc2onc(C)c2Cl)c(C)c1 [N-(4-chloro-3-methyl-5-isoxazolyl)-(2,4-dimethylphenylacetyl)thiophene-3-sulfonamide] | 4800 | 0.4 nM |  |  | 
Cc1ccc(OC(=O)c2sccc2S(=O)(=O)Nc2onc(C)c2Br)c(C)c1 [N-(4-bromo-3-methyl-5-isoxazolyl)-2-[(2,4-dimethylphenoxy)carbonyl]thiophene-3-sulfonamide] | 43200 | 291 nM |  |  | 
Cc1onc(NS(=O)(=O)c2c(Cc3ccc4c(c3)OCO4)sc3ccccc23)c1Cl [N-(4-chloro-5-methyl-3-isoxazolyl)-2-[3,4-(methylenedioxy)benzyl]benzo[b]thiophene-3-sulfonamide] | 364 | 5.5 nM |  |  | 
Cc1noc(NS(=O)(=O)c2ccsc2C(=O)Nc2cc3c(cc2CCO)OCO3)c1Cl [N-(4-chloro-3-methyl-5-isoxazolyl)-2-[3,4-(methylenedioxy)-6-(2-hydroxyethyl)phenylaminocarbonyl]thiophene-3-sulfonamide] | 16800 | 5.6 nM |  |  | 
Cc1ccc(CCc2ccsc2S(=O)(=O)Nc2onc(C)c2Br)cc1 [N-(4-bromo-3-methyl-5-isoxazolyl)-3-(4-methylphenethyl)thiophene-2-sulfonamide] | 9400 | 347 nM |  |  | 
Cc1noc(NS(=O)(=O)c2ccsc2C(=O)OCCc2ccc3c(c2)OCO3)c1Cl [N-(4-chloro-3-methy-5-isoxazolyl)-2-[2-(3,4-methylenedioxyphenyl)]ethoxycarbonyl-3-sulfonamide] | 6200 | 230 nM |  |  | 
Cc1cc(C)c(CCc2sccc2S(=O)(=O)Nc2onc(C)c2Br)c(C)c1 [N-(4-bromo-3-methyl-5-isoxazolyl)-2-(2,4,6-trimethylphenethyl)thiophene-3-sulfonamide] | 1230 | 41.7 nM |  |  | 
CC(=O)OCCOc1cc2c(cc1NC(=O)c1sccc1S(=O)(=O)Nc1onc(C)c1Cl)OCO2 [N-(4-chloro-3-methyl-5-isoxazolyl)-2-[3,4-(methylenedioxy)-6-(2-acetoxyethoxy)]phenylaminocarbonyl]thiophene-3-sulfonamide] | ~18000 | ~20 nM |  |  | 
Cc1noc(NS(=O)(=O)c2sccc2-c2ccc3c(c2)OCO3)c1Br [N-(4-bromo-3-methyl-5-isoxazolyl)-3-[(3,4-methylenedioxy)phenyl]thiophene-2-sulfonamide] | 79000 | 500 nM |  |  | 
N-(4-chloro-3-methyl-5-isoxazolyl)-2-[2-methyl-4,5-(methylenedioxy)phenylhydroxyimino]thiophene-3-sulfonamide | 6490 | 794 nM |  |  | 
Cc1noc(NS(=O)(=O)c2ccsc2C(=O)C(C#N)c2ccc3c(c2)OCO3)c1Cl (stereo not shown) [N-(4-chloro-3-methyl-5-isoxazolyl)-2-{1-cyano-1-[(3,4-methylenedioxy)phenyl]acetyl}thiophene-3-sulfonamide] | 27000 | 2100 nM |  |  | 
Cc1noc(NS(=O)(=O)c2c(Cc3ccc4c(c3)OCO4)sc3ccccc23)c1Br [N-(4-bromo-3-methyl-5-isoxazolyl)-2-[3,4-(methylenedioxy)benzyl]benzo[b]thiophene-3-sulfonamide] | 939 ± 262 | 7.4 ± 1.1 nM | 324 ± 780 | 1.5 ± 1.4 | 
CCCc1cc2c(cc1OCc1ccsc1S(=O)(=O)Nc1onc(C)c1Br)OCO2 [N-(4-bromo-3-methyl-5-isoxazolyl)-3-{[2-propyl-4,5-(methylenedioxy)phenoxy]methyl}thiophene-2-sulfonamide] | ~1500 | ~200 nM |  |  | 
Cc1noc(NS(=O)(=O)c2sccc2-c2ccc(CC(C)C)cc2)c1Br [N-(4-bromo-3-methyl-5-isoxazolyl)-3-(4-iso-butylphenyl)thiophene-2-sulfonamide] | 2760 | 82.3 nM |  |  | 
Cc1ccccc1-c1ccsc1S(=O)(=O)Nc1onc(C)c1Br [N-(4-bromo-3-methyl-5-isoxazolyl)-3-(2-tolyl)thiophene-2-sulfonamide] | 55100 | 324 nM and 302 nM |  |  | 31
Cc1cc(C)c(OCc2sccc2S(=O)(=O)Nc2onc(C)c2Br)c(C)c1 [N-(4-bromo-3-methyl-5-isoxazolyl)-2-[(2,4,6-trimethylphenoxy)methyl]thiophene-3-sulfonamide] | 3390 | 56.2 nM |  |  | 
N-(4-chloro-3-methyl-5-isoxazolyl)-2-[2-hydroxypropyl-4,5-(methylenedioxy)phenylaminocarbonyl]thiophene-3-sulfonamide | 8300 | 7.3 nM |  |  | 
Cc1cc(C)c(OC(=O)c2sccc2S(=O)(=O)Nc2onc(C)c2Cl)c(C)c1 [N-(4-chloro-3-methyl-5-isoxazolyl)-2-[(2,4,6-trimethylphenoxy)carbonyl]thiophene-3-sulfonamide] | 30200 | 77.6 nM |  |  | 
Cc1cc(C)c(NC(=O)c2sccc2S(=O)(=O)Nc2noc(C)c2Cl)c(C)c1CO [N-(4-chloro-5-methyl-3-isoxazolyl)-2-(3-hydroxymethyl-2,4,6-trimethylphenylaminocarbonyl)thiophene-3-sulfonamide] | 3080 | 0.88 nM |  |  | 
Cc1noc(NS(=O)(=O)c2ccsc2C(=O)Oc2cccc(N(C)C)c2)c1Cl [N-(4-chloro-3-methyl-5-isoxazolyl)-2-[(3-dimethylamino)phenoxycarbonyl]thiophene-3-sulfonamide] | 60000 | 1400 nM |  |  | 
Cc1ccc(/C=C/c2ccsc2S(=O)(=O)Nc2onc(C)c2Br)cc1 [N-(4-bromo-3-methyl-5-isoxazolyl)-3-(4-methyl-trans-styryl)thiophene-2-sulfonamide] | 660 | 940 nM |  |  | 
Cc1noc(NS(=O)(=O)c2sccc2CC=Cc2cc3c(cc2CO)OCO3)c1Br [N-(4-bromo-3-methyl-5-isoxazolyl)-3-[2-(hydroxymethyl)-4,5-(methylenedioxy)cinnamyl]thiophene-2-sulfonamide] | 3240 | 79.5 nM |  |  | 
Cc1ccc(CCc2ccsc2S(=O)(=O)Nc2onc(C)c2Br)c(C)c1 [N-(4-bromo-3-methyl-5-isoxazolyl)-3-(2,4-dimethylphenethyl)thiophene-2-sulfonamide] | 4300 | 101 nM |  |  | 

Reference: patent US6632829B2, “Sulfonamides and derivatives thereof that modulate the activity of endothelin” (Texas Biotechnology Corp., priority 1996, dated 2003)
